# According to patent publication US6524595B1, “Cyclodextrins preferentially substituted on their primary face by acid or amine functions” (priority 2000, dated 2003):
# How the values were obtained:
# [1] = Cutaneous penetration test of caffeine on Franz cell (diffusion, release, storage); assay type: in vitro ADME, rat; conditions: for average quantity of caffeine per unit surface diffused into the receptor chamber: 2 g deposited, 2.54 cm^2 Franz cell, PBS receptor
# Method: The receptor chamber was constituted by a PBS buffer and antibiotics. Diffusion was monitored over time by sampling from the receptor chamber and analysis by high performance liquid chromatography. […] After rinsing the biopsy used in the diffusion study, it was kept in the Franz cell for 24 hours without donors. The quantity of active ingredient liberated in the PBS buffer was then analyzed by HPLC, to study the ability of the skin to temporarily retain the test solution (Release study).
# [2] = Vitamin E determination by HPLC (fluorescence); assay type: physicochemical
# Method: The vitamin E content was determined by HPLC (fluorescence) and evaluated for each sample: […]
# [3] = Cutaneous penetration study of vitamin E on Franz cell (diffusion, release, storage); assay type: in vitro ADME, rat; conditions: for percentage of vitamin E diffused: 2 g deposited, 2.54 cm^2 Franz cell, ethoxydiglycol receptor
# Method: Cutaneous penetration studies were carried out on products 26-a, 26-b, 26-c and 26-d from example 26. […] The receptor chamber was constituted by ethoxydiglycol and antibiotics. Diffusion was monitored over time by sampling from the receptor chamber then HPLC analysis (fluorescence). […] After rinsing the biopsy used in the diffusion study, it was kept in the Franz cell for 24 hours without donors. The quantity of active ingredient liberated in the ethoxydiglycol was then analyzed by HPLC, underlining the ability of the skin to temporarily retain the test solution (release study).
# [4] = Aspect of the solution obtained / nanoparticle formation; assay type: physicochemical
# Method: The solution was then added at a constant rate (1 ml/s) to distilled water (450 ml) with stirring to form a milky solution. […] The procedure of example 15 was followed but instead of using the compound obtained in example 2, a commercial β-cyclodextrin with an identical molar concentration was used.
# [5] = system: skin of rabbits; assay: Evaluation of primary dermal irritation in the rabbit; assay type: in vivo; conditions: 10% in a 0.5% xanthan gel, undiluted, 0.5 ml
# Method: Toxicological tests were carried out on the compound obtained in example 2a incorporated in an amount of 10% into a 0.5% xanthan gel, by occular evaluation in the rabbit, by a study of the absence of abnormal toxicity by a single oral administration to the rat and by a sensitization power study in the guinea-pig.
# At the same time, a toxicological study was carried out under the same experimental conditions on commercial β-cyclodextrin incorporated in an amount of 10% into a 0.5% xanthan gel.
# The preparations described above were applied undiluted in a dose of 0.5 ml to the skin of 3 rabbits using the method recommended by the OECD directive regarding the study of “The acute dermal irritant/corrosive effect”.
# The products were classified in accordance with the criteria in the order of Feb. 1, 1982 published in the JORF [Official journal of the French Republic] on Feb. 2, 1982.
# [6] = biopsy in ethanolic solution 24 hours after release study
# [7] = rinsed biopsy kept in Franz cell 24 hours without donors
molecule,measurement,setting,value
"Cn1c(=O)c2c(ncn2C)n(C)c1=O [Caffeine free, caffeine]",average quantity of caffeine per unit surface diffused into the receptor chamber,[1]; 0 hours,0 μg/cm^2
same,average quantity of caffeine per unit surface diffused into the receptor chamber,[1]; 24 hours,1783 μg/cm^2
same,Storage (caffeine still present in the skin),[1]; [6],26.57 ± 6.55 μg/cm2
same,Release (caffeine liberated in the PBS buffer),[1]; [7],286.8 ± 28.36 μg/cm2
"Cc1c(C)c2c(c(C)c1O)CC[C@@](C)(CCC[C@H](C)CCC[C@H](C)CCCC(C)C)O2 [Example 26-d, vitamin E]",Vitamin E determination (vitamin E content of sample),[2]; 0.1% of vitamin E used,0.0943%
same,percentage of vitamin E diffused,[3]; 0 hours,0
same,percentage of vitamin E diffused,[3]; 48 hours,10.32%
same,Storage (vitamin E still present in the skin),[3]; [6],1.74 ± 0.24 % diffusion
same,Release (vitamin E liberated in the ethoxydiglycol),[3]; [7],3.33 ± 0.9 % diffusion
"OC[C@H]1O[C@@H]2O[C@H]3[C@H](O)[C@@H](O)[C@@H](O[C@H]4[C@H](O)[C@@H](O)[C@@H](O[C@H]5[C@H](O)[C@@H](O)[C@@H](O[C@H]6[C@H](O)[C@@H](O)[C@@H](O[C@H]7[C@H](O)[C@@H](O)[C@@H](O[C@H]8[C@H](O)[C@@H](O)[C@@H](O[C@H]1[C@H](O)[C@H]2O)O[C@@H]8CO)O[C@@H]7CO)O[C@@H]6CO)O[C@@H]5CO)O[C@@H]4CO)O[C@@H]3CO [commercial β-cyclodextrin, β-cyclodextrin]",solubility in water (in words),[4],soluble in water
same,nanoparticle formation (in words),[4]; nanoparticle protocol with commercial β-cyclodextrin at identical molar concentration,no nanoparticles are formed
same,primary dermal irritation classification,[5],slight irritant for the skin
(Lauroate)y-β-cyclodextrin [Example 2a],encapsulation of vitamin E (in words),[2],encapsulated the vitamin E highly effectively
same,primary dermal irritation classification,[5],non irritant to the skin
